According to patent publication US11976280B2, “SMAC/Diablo inhibitors useful for treating cancer” (THE NATIONAL INSTITUTE FOR BIOTECHNOLOGY IN THE NEGEV LTD., priority 2017, dated 2024):
d = 2'-deoxy (DNA); r = 2'-OH (RNA)

Experiments:
HeLa, A549 or H358 cells = assay: Cell death analysis, PI / FITC-Annexin V staining and flow cytometry; type: cell-based, human; conditions: cells silenced for SMAC/Diablo; no significant cell death
Description: Cells death was analyzed by propidium iodide (PI) staining and flow cytometer (Beckton-Dickinson, San Jose, CA) and BD CellQuest Pro software, or using acridine orange ethidium bromide staining (Abu-Hamad, S., et al., 2009. J Cell Sci, 122(Pt 11): p. 1906-1916).
Moreover, apoptosis was induced by over-expressing SMAC/Diablo or SMAC/Diablo-GFP in HeLa, A549 and H358 cells in a concentration- and time-dependent manner, again as expected (FIG. 3D-3F).

[1] = tested on: A549 cells-derived tumors; assay: q-PCR of lipid synthesis genes in tumors; type: in vivo, human
Description: Total RNA was isolated from cells using an RNeasy mini kit (Qiagen) according to the manufacturer's instructions. Complementary DNA was synthesized from 1 μg total RNA using a Verso cDNA synthesis kit (Thermo Scientific). q-PCR was performed using specific primers (KiCqStart Primers; Sigma Aldrich) in triplicates, using Power SYBER green master mix (Applied Biosystems, Foster City, CA). The levels of the target genes were normalized relative to β-actin mRNA levels. Samples were amplified by a 7300 Real Time PCR System (Applied Biosystems) 95° C. for 2 minutes and for 40 cycles using the following PCR parameters: 95° C. for 15 seconds, 60° C. for 1 minute, and 72° C. for 1 minute. The copy numbers for each sample were calculated by the CT-based calibrated standard curve method. The mean fold changes (±SEM) of the three replicates were calculated.
Therefore, using q-PCR, the levels of genes encoding enzymes associated with diacylglycerol (DAG) synthesis, such as glycerol kinase (GK), and the mitochondrial proteins glycerol-3-phosphate acyltransferase 1 and 4 (GPAM1, GPAM4) were analyzed.

For “si-hSMAC-A: siRNA to human SMAC/Diablo; sense 5′AAGCGGUGUUUCUCAGAAUUGtt3′ (SEQ ID NO:20), antisense 5′AACAAUUCUGAGAAACCCGCtt3′ (SEQ ID NO:21) (sense AAGCGGUGUUUCUCAGAAUUGTT; antisense AACAAUUCUGAGAAACCCGCTT; sense: sugars from the 5' end r21 d2, backbone not given here; antisense: sugars from the 5' end r20 d2, backbone not given here)”, the cell death (HeLa, A549 or H358 cells) was 5-10%, the “mRNA of GK, GPAM1, GPAM4 (DAG synthesis)” value [1] was “decreased” and the “mRNA of PEMT, CHKA, CHPT1, PLA2G1B” value [1] was “increased”.
